ChEMBL document CHEMBL5647685
Active and inactive are the calls of the source. No cut-off for these calls is given here.

How the values were obtained:
[1] = test system: MSC; assay: Induction of osteoblast nodule formation in human MSC cultures assessed as mineral incorporation at 0.1 to 1 uM by blue incubated for 1 to 14 days calcein detection based fluorescent micrography; assay type: functional, cell-based; conditions: dose 0.1-1 µM, time 1-14 day
[2] = biological target: T1, Tyrosine-protein kinase JAK3 (Homo sapiens) (UniProt P52333); assay: Inhibition of full-length C-terminal his-tagged human JAK3 at 1 uM pre-incubated with enzyme for 1 h prior to the addition of 500 uM ATP relative to control
T1 sequence (whole entry): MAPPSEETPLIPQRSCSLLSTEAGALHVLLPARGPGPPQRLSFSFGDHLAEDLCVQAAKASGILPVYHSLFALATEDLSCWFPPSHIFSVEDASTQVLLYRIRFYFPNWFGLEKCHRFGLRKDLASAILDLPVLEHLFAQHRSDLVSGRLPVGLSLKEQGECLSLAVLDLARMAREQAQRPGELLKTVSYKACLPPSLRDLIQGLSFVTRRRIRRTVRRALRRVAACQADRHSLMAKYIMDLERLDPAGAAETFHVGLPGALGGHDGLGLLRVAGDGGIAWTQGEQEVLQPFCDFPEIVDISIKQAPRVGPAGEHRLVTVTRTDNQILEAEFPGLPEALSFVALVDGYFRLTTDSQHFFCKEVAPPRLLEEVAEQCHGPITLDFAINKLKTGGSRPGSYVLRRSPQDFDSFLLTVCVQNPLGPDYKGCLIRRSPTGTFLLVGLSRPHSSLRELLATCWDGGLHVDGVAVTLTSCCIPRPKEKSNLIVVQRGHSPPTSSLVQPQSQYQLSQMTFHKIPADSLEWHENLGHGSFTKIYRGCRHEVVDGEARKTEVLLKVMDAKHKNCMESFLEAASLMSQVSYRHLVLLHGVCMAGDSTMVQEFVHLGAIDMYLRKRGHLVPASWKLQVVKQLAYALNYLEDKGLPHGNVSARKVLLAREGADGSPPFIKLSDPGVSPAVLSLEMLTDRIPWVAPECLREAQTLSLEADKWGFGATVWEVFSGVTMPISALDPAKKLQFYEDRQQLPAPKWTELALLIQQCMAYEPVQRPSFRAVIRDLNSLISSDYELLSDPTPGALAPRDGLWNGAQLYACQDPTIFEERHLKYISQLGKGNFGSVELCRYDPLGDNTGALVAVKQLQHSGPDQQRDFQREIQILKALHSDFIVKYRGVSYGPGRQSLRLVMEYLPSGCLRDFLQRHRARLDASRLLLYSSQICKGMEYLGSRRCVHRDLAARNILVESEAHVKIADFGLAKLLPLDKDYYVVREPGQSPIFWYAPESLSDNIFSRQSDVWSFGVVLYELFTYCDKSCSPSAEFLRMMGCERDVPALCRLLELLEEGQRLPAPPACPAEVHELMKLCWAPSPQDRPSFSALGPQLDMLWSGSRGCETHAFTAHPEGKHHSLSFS

[3] = test system: MSC; assay: Bone activity in human MSC cultures assessed as promotion of osteogenesis at 0.1 to 1 uM dosed on days 4 to 7 and measured on day 7 by alkaline phosphatase activity detection detection assay; assay type: functional; conditions: dose 0.1-1 µM, time 4.0 day
[4] = biological target: High affinity nerve growth factor receptor (Homo sapiens) (UniProt P04629); assay: Inhibition of full-length C-terminal his-tagged human TRKA at 1 uM pre-incubated with enzyme for 1 h prior to the addition of 500 uM ATP relative to control
[5] = biological target: T2, Aurora kinase A (Homo sapiens) (UniProt O14965); assay: Inhibition of full-length C-terminal his-tagged human AUR2 at 1 uM pre-incubated with enzyme for 1 h prior to the addition of 500 uM ATP relative to control
T2 sequence (whole entry): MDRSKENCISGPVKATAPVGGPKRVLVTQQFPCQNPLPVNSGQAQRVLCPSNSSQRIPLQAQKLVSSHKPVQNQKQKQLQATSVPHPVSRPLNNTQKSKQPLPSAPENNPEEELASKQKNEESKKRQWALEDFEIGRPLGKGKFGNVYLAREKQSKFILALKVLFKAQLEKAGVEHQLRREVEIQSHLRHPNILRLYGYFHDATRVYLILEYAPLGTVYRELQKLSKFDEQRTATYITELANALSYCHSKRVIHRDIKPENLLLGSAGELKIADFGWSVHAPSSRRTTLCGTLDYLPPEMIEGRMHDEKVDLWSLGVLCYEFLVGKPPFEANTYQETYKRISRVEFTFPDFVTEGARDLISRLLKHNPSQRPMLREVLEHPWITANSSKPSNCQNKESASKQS

[6] = test system: MSC; assay: Bone activity in human MSC cultures assessed as promotion of osteogenesis at 0.1 to 1 uM dosed on days 1 to 7 and measured on day 7 by alkaline phosphatase activity detection detection assay; assay type: functional; conditions: dose 0.1-1 µM, time 7.0 day

High affinity nerve growth factor receptor (Homo sapiens), sequence (P04629 33-796 limits assumed): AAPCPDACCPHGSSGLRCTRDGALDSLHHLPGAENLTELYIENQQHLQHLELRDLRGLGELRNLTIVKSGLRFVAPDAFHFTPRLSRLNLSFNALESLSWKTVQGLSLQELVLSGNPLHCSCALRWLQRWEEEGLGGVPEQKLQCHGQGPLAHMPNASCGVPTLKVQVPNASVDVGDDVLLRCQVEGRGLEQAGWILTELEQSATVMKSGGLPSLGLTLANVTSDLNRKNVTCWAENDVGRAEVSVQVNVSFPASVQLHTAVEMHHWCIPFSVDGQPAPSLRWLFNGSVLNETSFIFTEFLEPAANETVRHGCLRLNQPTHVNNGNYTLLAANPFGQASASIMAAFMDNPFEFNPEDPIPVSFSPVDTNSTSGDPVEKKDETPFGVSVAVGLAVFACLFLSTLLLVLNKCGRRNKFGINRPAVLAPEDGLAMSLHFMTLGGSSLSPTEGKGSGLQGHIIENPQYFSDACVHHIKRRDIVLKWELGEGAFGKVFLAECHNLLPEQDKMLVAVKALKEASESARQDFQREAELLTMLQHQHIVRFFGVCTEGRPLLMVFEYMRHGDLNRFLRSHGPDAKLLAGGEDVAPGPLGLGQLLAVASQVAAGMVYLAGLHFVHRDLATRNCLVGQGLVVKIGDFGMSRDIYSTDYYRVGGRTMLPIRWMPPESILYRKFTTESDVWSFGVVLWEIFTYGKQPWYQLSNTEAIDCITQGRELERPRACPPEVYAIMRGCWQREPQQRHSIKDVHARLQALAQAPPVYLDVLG

Structure (SMILES) | Activity [1] | inhibition [2] [%] | Activity [3] | inhibition [4] [%] | inhibition [5] [%] | Activity [6]
CN(c1ccccc1CNc1nc(Nc2ccc3c(c2)CC(=O)N3)ncc1C(F)(F)F)S(C)(=O)=O | inactive | > 90 | Active | > 90 | > 90 | –
Cc1ccc(-n2nc(C(C)(C)C)cc2NC(=O)Nc2cc(COc3cccnc3)n[nH]2)cc1 | Active | – | – | – | – | Dose-Dependent Effect
